Measured values from the supplement of paper PMC10307832.

Tests used:
Assay in all cases: relative viability (nuclei count vs DMSO), 5 days (fraction); higher = more cells survive
[1] = compound: C#Cc1cccc(Nc2ncnc3cc(OC)c(OCCCCCCC(=O)NO)cc23)c1 [CUDC-101] + NC(=O)Nc1cc(-c2cccc(F)c2)sc1C(=O)N[C@H]1CCCNC1 [AZD7762] (partner 0.2 µM)
How it was run: (§1)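 Each reported value is a median over duplicate plates. It expresses relative viability: treated-well nuclei count divided by vehicle-well nuclei count. Lung cancer cell lines in 1536-well plates were dosed by pin tool a day after seeding, alone with one drug or with a fixed anchor-drug dose plus five library-drug doses (not always all listed) in √10 steps, and nuclei were counted after 5 days.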

[2] = compound: C1=CC=C2C(=C1)N=C(S2)C(C#N)C3=NC(=NC=C3)NCCC4=CN=CC=C4 + NC(=O)Nc1cc(-c2cccc(F)c2)sc1C(=O)N[C@H]1CCCNC1 [AZD7762] (partner 0.2 µM)
How it was run: as §1

[3] = compound: C#Cc1cccc(Nc2ncnc3cc(OC)c(OCCCCCCC(=O)NO)cc23)c1 [CUDC-101] + Cc1cc(Nc2cc(N3CCN(C)CC3)nc(Sc3ccc(NC(=O)C4CC4)cc3)n2)n[nH]1 [Tozasertib] (partner 0.1 µM)
How it was run: as §1

[4] = compound: C#Cc1cccc(Nc2ncnc3cc(OC)c(OCCCCCCC(=O)NO)cc23)c1 [CUDC-101] + Cc1nc(NC(=O)N2CCC[C@H]2C(N)=O)sc1-c1ccnc(C(C)(C)C(F)(F)F)c1 [Alpelisib] (partner 2 µM)
How it was run: as §1

Cell Line	relative viability ([1]; first compound 0.01 µM)	relative viability ([1]; first compound 0.03162 µM)	relative viability ([1]; first compound 0.1 µM)	relative viability ([1]; first compound 0.3162 µM)	relative viability ([1]; first compound 1 µM)	relative viability ([2]; first compound 0.005 µM)	relative viability ([2]; first compound 0.01581 µM)	relative viability ([2]; first compound 0.05 µM)	relative viability ([2]; first compound 0.1581 µM)	relative viability ([2]; first compound 0.5 µM)	relative viability ([3]; first compound 0.01 µM)	relative viability ([3]; first compound 0.03162 µM)	relative viability ([3]; first compound 0.1 µM)	relative viability ([3]; first compound 0.3162 µM)	relative viability ([3]; first compound 1 µM)	relative viability ([4]; first compound 0.01 µM)	relative viability ([4]; first compound 0.03162 µM)	relative viability ([4]; first compound 0.1 µM)	relative viability ([4]; first compound 0.3162 µM)	relative viability ([4]; first compound 1 µM)
201T	0.617	0.646	0.613	0.614	0.39	0.542	0.674	0.69	0.707	0.56	0.927	0.899	0.876	0.69	0.536	0.932	0.937	0.926	1.05	0.88
A549																0.773	0.757	0.605	0.948	0.618
A-427	0.675	0.701	0.625	0.483	0.258	0.816	0.727	0.682	0.764	0.645	0.211	0.227	0.219	0.205	0.165	1.15	1.1	1.11	1.02	0.887
ABC-1	0.889	0.807	0.763	0.852	0.334	0.913	0.809	0.789	0.921	0.848	0.139	0.186	0.189	0.166	0.128	1.15	1.07	0.819	0.609	0.572
BEN	0.68	0.735	0.703	0.684	0.645	0.759	0.609	0.689	0.85	0.774	0.54	0.505	0.452	0.47	0.427	1.21	0.887	1.17	0.848	0.737
CAL-12T	0.668	0.567	0.617	0.536	0.601	0.571	0.575	0.628	0.608	0.543	0.409	0.278	0.318	0.344	0.362	1.38	0.984	1.42	1.11	1.21
COR-L23											0.245	0.202	0.208	0.218	0.159	0.968	0.753	0.661	0.617	0.349
COR-L 105											0.266	0.353	0.342	0.27	0.311	1.17	0.848	0.88	0.829	0.52
Calu-6																1.02	0.939	0.986	1	0.763
ChaGo-K-1	0.92	0.913	0.937	0.841	0.732	0.781	0.886	0.911	0.884	0.764	0.216	0.214	0.246	0.238	0.208					
EBC-1																0.796	0.709	0.696	0.721	0.319
EKVX	0.84	0.68	0.656	0.771	0.563	0.704	0.777	0.682	0.85	0.604	0.392	0.32	0.394	0.366	0.295	0.833	0.817	0.849	1.03	0.682
